Test results published in PMC4503959, “Dopamine modulates hemocyte phagocytosis via a D1-like receptor in the rice stem borer, Chilo suppressalis” (Scientific Reports, 2015).

Biological target: T1, CsDOP1 (Chilo suppressalis, UniProt A0A0K0QVU3)
T1 construct: gene DOP1; receptor in pcDNA3, stably expressed in HEK 293 cells; GPCR coupled to Gs (cAMP increase)
T1 sequence (A0A0K0QVU3 1-409): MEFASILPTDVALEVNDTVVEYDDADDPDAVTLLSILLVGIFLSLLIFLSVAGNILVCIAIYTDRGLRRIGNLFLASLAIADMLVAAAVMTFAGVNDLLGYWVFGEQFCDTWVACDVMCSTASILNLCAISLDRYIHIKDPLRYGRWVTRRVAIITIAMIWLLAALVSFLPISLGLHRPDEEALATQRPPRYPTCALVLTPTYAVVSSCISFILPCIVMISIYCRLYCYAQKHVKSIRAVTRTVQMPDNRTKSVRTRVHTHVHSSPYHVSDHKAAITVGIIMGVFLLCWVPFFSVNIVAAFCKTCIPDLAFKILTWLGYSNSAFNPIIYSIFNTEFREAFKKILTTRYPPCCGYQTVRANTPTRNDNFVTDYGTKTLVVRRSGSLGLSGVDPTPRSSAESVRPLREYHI
Test: intracellular cAMP accumulation
Type: cell-based

For `NCCc1ccc(O)c(O)c1` [dopamine], the EC50 was 1.93 nM.
